Measurements reported in US9480259B2, “Pyrazolopyrans having herbicidal and pharmaceutical properties” (BASF SE, priority 2012, dated 2016).

Target: Arabidopsis thaliana SHMT
Experiment: SHMT activity assay (ED50 SHMT), coupled with N5,N10-CH2-THF dehydrogenase, NADH at 340 nm
Assay type: biochemical
Description: Determination of the ED50 SHMT was carried out as described hereinunder.
Purification of Arabidopsis thaliana SHMT
The following buffers were used during the purification protocol:
Buffer A (Lysis and Wash Buffer): • 20 mM Na-Phosphat (pH 7,4) • 500 mM NaCI • 40 mM Imidazole • 1.0 mM L-Serine • 0.5 mM Pyridoxal-5-phosphate • 0.5 mM DTT
Buffer B (Elution Buffer): • 20 mM Na-Phosphat (pH 7,4) • 500 mM NaCl • 250 mM Imidazole • 1.0 mM L-Serine • 0.5 mM Pyridoxal-5-phosphate • 0.5 mM DTT
All procedures were conducted at 4° C. or on ice. Pellets were suspended in Buffer A containing 1 mg/ml DNAse +Complete EDTA-free protease inhibitor tablet. Cells were lysed using sonication or a French Press device, using standard settings. Lysis was centrifuged at 40000×g for 25 minutes. The supernatant was filtered (0.22 μM) before loading onto a Ni-NTA column.
A gravity flow column containing Ni-NTA resin was equilibrated with 10 CV Buffer A and loaded with filtered cell lysate. The column was then washed with 10 CV Buffer A. Elution was afforded using Buffer B and collected manually as mini-factions. EDTA was added after elution to a final concentration of 1 mM. Fractions were pooled on the basis of the correct band for SHMT visualised via SDS-PAGE and staining.
SHMT Assay Buffer: • 50 mM KH2PO4 (pH 7,4) • 2.0 mM NAD+ • 7.5 mM DTT • 0.3 mM Tetrahydrofolic acid • 4% DMSO
Reaction Start: 20 mM L-Serine
The rate of N5,N10-CH2-THF formation catalyzed by SHMT was monitored at 340 nm by coupling with excess N5,N10-CH2-THF dehydrogenase, which converts NAD+to NADH. Reactions were initiated by adding 20 mM L-Serine. Inhibition of initial velocity was determined by adding various inhibitors of the SHMT reaction and monitored as described. Reactions were measured in a Bio Tek micro titer plate reader following the change in absorption with the formation of NADH for 30 mimnutes.

[1] = Table 2, values given as upper bounds
[2] = Table 2, Arabidopsis thaliana SHMT enzyme assay, values given as upper bounds
[3] = inhibition of initial velocity of Arabidopsis thaliana SHMT

| SMILES | EC50 [1] | further results |
| --- | --- | --- |
| CCC1(c2cccc(F)c2)C(C#N)=C(N)Oc2[nH]nc(C)c21 (racemic) [Compound 2.9.] | < 1 µM |  |
| CCC1(c2ccc(F)c(Br)c2)C(C#N)=C(N)Oc2[nH]nc(C)c21 (racemic) [Compound 2.13.] | < 0.1 µM |  |
| CCC1(c2ccc(OC(C)(C)C)cc2)C(C#N)=C(N)Oc2[nH]nc(C)c21 (racemic) [Compound 2.27.] | < 10 µM |  |
| CCC1(c2cccc(C)c2)C(C#N)=C(N)Oc2[nH]nc(C)c21 (racemic) [Compound 2.42.] | < 10 µM |  |
| CCOC(=O)COc1ccc(C2(CC)C(C#N)=C(N)Oc3[nH]nc(C)c32)cc1[N+](=O)[O-] (racemic) [Compound 2.43.] | < 1 µM |  |
| CCCCC1(c2cccc(Cl)c2)C(C#N)=C(N)Oc2[nH]nc(C)c21 (racemic) [Compound 2.91.] | < 10 µM |  |
| CCCCC1(c2cc(Cl)cc(Cl)c2)C(C#N)=C(N)Oc2[nH]nc(C)c21 (racemic) [Compound 2.92.] | < 10 µM |  |
| CCC1(c2cccc(C(F)(F)F)c2)C(C#N)=C(N)Oc2[nH]nc(COC)c21 (racemic) [Compound 2.97.] | < 10 µM |  |
| CCCc1n[nH]c2c1C(CC)(c1cccc(C(F)(F)F)c1)C(C#N)=C(N)O2 (racemic) [Compound 2.99.] | < 10 µM |  |
| Cc1n[nH]c2c1C(c1ccc(OC(F)(F)F)cc1)(C(C)C)C(C#N)=C(N)O2 (racemic) [Compound 2.145.] | < 1 µM |  |
| N#CC1=C(N)Oc2[nH]nc(C3CC3)c2C1(c1cc(Cl)cc(Cl)c1)C1CCC1 (racemic) [Compound 2.156.] | < 0.1 µM |  |
| CCC1(c2ccc(Oc3ccccc3)cc2)C(C#N)=C(N)Oc2[nH]nc(C(C)C)c21 (racemic) [Compound 2.160.] | < 10 µM |  |
| Cc1n[nH]c2c1C(c1cc(Cl)cc(Oc3ccc(Cl)cc3)c1)(C1CC1)C(C#N)=C(N)O2 (racemic) [Compound 2.342] |  | EC50 [2]: < 0.01 µM |
| Cc1n[nH]c2c1C(c1cc(Cl)cc(Oc3cccc(Cl)c3)c1)(C1CC1)C(C#N)=C(N)O2 (racemic) [Compound 2.347] |  | EC50 [2]: < 0.01 µM |
| Cc1n[nH]c2c1C(c1cc(Cl)cc(C#N)c1)(C1(F)CC1)C(C#N)=C(N)O2 (racemic) [Compound 2.379] |  | EC50 [2]: < 0.01 µM |
| CCC1(c2cc(F)cc(Br)c2)C(C#N)=C(N)Oc2[nH]nc(C)c21 (racemic) [Compound 2.467] | < 0.1 µM |  |
| Cc1n[nH]c2c1C(c1cc(Cl)cc(Cl)c1)(C1(F)COC1)C(C#N)=C(N)O2 (racemic) [Compound 2.478] | < 0.1 µM |  |
| Cc1n[nH]c2c1C(c1cc(C(F)(F)F)cc(C(F)(F)F)c1)(C1(F)COC1)C(C#N)=C(N)O2 (racemic) [Compound 2.501] | < 0.01 µM |  |
| Cc1n[nH]c2c1C(c1cc(Cl)cc(OCCC(=O)O)c1)(C1CCC1)C(C#N)=C(N)O2 (racemic) [Compound 2.505] | < 0.01 µM |  |
| COC(=O)c1cc(-c2cc(Cl)cc(C3(C4CCC4)C(C#N)=C(N)Oc4[nH]nc(C)c43)c2)ccc1Cl (racemic) [Compound 2.514] | < 0.01 µM |  |
| COC(=O)c1ccc(-c2cc(C#N)cc(C3(C4CCC4)C(C#N)=C(N)Oc4[nH]nc(C)c43)c2)cc1F (racemic) [Compound 2.521] | < 0.01 µM |  |
| Cc1n[nH]c2c1C(c1cc(Cl)cc(-c3cccc(NS(C)(=O)=O)c3)c1)(C1CCC1)C(C#N)=C(N)O2 (racemic) [Compound 2.527] | < 0.01 µM |  |

| SMILES | EC50 [1] | further results |
| --- | --- | --- |
| Cc1n[nH]c2c1C(c1cc(Cl)cc(-c3ccc(NS(C)(=O)=O)cc3)c1)(C1CCC1)C(C#N)=C(N)O2 (racemic) [Compound 2.528] | < 0.01 µM |  |
| CCC1(c2cc(C#N)cc(C(F)(F)F)c2)C(C#N)=C(N)Oc2[nH]nc(C)c21 (racemic) [Compound 2.530] | < 0.01 µM |  |
| Cc1n[nH]c2c1C(c1cc(C(F)(F)F)cc(C(F)(F)F)c1)(C1CC(O)C1)C(C#N)=C(N)O2 (racemic) [Compound 2.540] | < 0.1 µM |  |
| Cc1n[nH]c2c1C(c1ccc(CC(=O)O)c(C#N)c1)(C1CCC1)C(C#N)=C(N)O2 (racemic) [Compound 2.541] | < 1 µM |  |
| Cc1n[nH]c2c1C(c1ccc(-c3ccsc3)s1)(C1CCC1)C(C#N)=C(N)O2 (racemic) [Compound 4.21] |  | EC50 [3]: < 0.01 µM |
| COc1ccc2cc(C3(C4(F)CC4)C(C#N)=C(N)Oc4[nH]nc(C)c43)ccc2c1 (racemic) [Compound 4.40] |  | EC50 [3]: < 0.01 µM |
| Cc1n[nH]c2c1C(c1ccc3c(c1)OCCO3)(C1(F)CC1)C(C#N)=C(N)O2 (racemic) [Compound 4.51] |  | EC50 [3]: < 0.1 µM |
| Cc1n[nH]c2c1C(c1nc3c(Br)cccc3o1)(C1CCC1)C(C#N)=C(N)O2 (racemic) [Compound 4.58] |  | EC50 [3]: < 0.1 µM |
| Cc1n[nH]c2c1C(c1ccc3ccccc3c1)(C1(F)CC1)C(C#N)=C(N)O2 (racemic) [Compound 4.59] |  | EC50 [3]: < 0.1 µM |
| CCC1(CCC2CCCCC2)C(C#N)=C(N)Oc2[nH]nc(C)c21 (racemic) [Compound 4.65] |  | EC50 [3]: < 1 µM |
| Cc1csc(C2(C3CC3)C(C#N)=C(N)Oc3[nH]nc(C)c32)c1 (racemic) [Compound 4.70] |  | EC50 [3]: < 1 µM |
| COc1ccc2cc(C3(C4(F)CC4)C(C#N)=C(N)Oc4[nH]ncc43)ccc2c1 (racemic) [Compound 4.75] |  | EC50 [3]: < 1 µM |
| Cc1n[nH]c2c1C(c1ccc3c(c1)OC(F)(F)O3)(C1(F)COC1)C(C#N)=C(N)O2 (racemic) [Compound 4.84] |  | EC50 [3]: < 10 µM |
| CCC1(c2cccc(Oc3ccccc3)c2)C(C#N)=C(N)Oc2[nH]nc(C)c21 (stereo not shown) [Compound 2.1.] | < 0.1 µM |  |
| CCC1(c2ccc(F)cc2)C(C#N)=C(N)Oc2[nH]nc(C)c21 (stereo not shown) [Compound 2.2.] | < 10 µM |  |
| CCC1(c2cccc(Br)c2)C(C#N)=C(N)Oc2[nH]nc(C)c21 (stereo not shown) [Compound 2.4.] | < 1 µM |  |
| CCC1(c2ccc(NC(C)=O)cc2)C(C#N)=C(N)Oc2[nH]nc(C)c21 (stereo not shown) [Compound 2.6.] | < 10 µM |  |
| CCC1(c2ccc(C(C)(C)C)cc2)C(C#N)=C(N)Oc2[nH]nc(C)c21 (stereo not shown) [Compound 2.7.] | < 10 µM |  |
| CCC1(c2ccc(Oc3ccccc3)cc2)C(C#N)=C(N)Oc2[nH]nc(C)c21 (stereo not shown) [Compound 2.8.] | < 1 µM |  |
| CCC1(c2ccc(F)c(Oc3ccccc3)c2)C(C#N)=C(N)Oc2[nH]nc(C)c21 (stereo not shown) [Compound 2.11.] | < 1 µM |  |
| CCC1(c2cc(Cl)cc(Cl)c2)C(C#N)=C(N)Oc2[nH]nc(C)c21 (stereo not shown) [Compound 2.12.] | < 0.1 µM |  |
| CCC1(c2ccc(Cl)c(Cl)c2)C(C#N)=C(N)Oc2[nH]nc(C)c21 (stereo not shown) [Compound 2.14.] | < 0.1 µM |  |

| SMILES | EC50 [1] | further results |
| --- | --- | --- |
| CCC1(c2cccc(F)c2)C(C#N)=C(N)Oc2[nH]nc(C)c21 (stereo not shown) [Compound 2.15.] | < 10 µM |  |
| CCC1(c2ccc(F)c(F)c2)C(C#N)=C(N)Oc2[nH]nc(C)c21 (stereo not shown) [Compound 2.16.] | < 10 µM |  |
| CCC1(c2cc(F)cc(F)c2)C(C#N)=C(N)Oc2[nH]nc(C)c21 (stereo not shown) [Compound 2.17.] | < 1 µM |  |
| CCC1(c2cc(F)c(F)c(F)c2)C(C#N)=C(N)Oc2[nH]nc(C)c21 (stereo not shown) [Compound 2.18.] | < 1 µM |  |
| CCC1(c2ccc(F)c(Cl)c2)C(C#N)=C(N)Oc2[nH]nc(C)c21 (stereo not shown) [Compound 2.19.] | < 0.1 µM |  |
| CCC1(c2cc(F)cc(Cl)c2)C(C#N)=C(N)Oc2[nH]nc(C)c21 (stereo not shown) [Compound 2.20.] | < 1 µM |  |
| CCC1(c2ccc(OC)c(OC)c2)C(C#N)=C(N)Oc2[nH]nc(C)c21 (stereo not shown) [Compound 2.21.] | < 1 µM |  |
| CCC1(c2ccc(OC)cc2)C(C#N)=C(N)Oc2[nH]nc(C)c21 (stereo not shown) [Compound 2.22.] | < 1 µM |  |
| CCC1(c2ccc(Oc3ccc(C(F)(F)F)cc3Cl)c(C)c2)C(C#N)=C(N)Oc2[nH]nc(C)c21 (stereo not shown) [Compound 2.23.] | < 10 µM |  |
| CCC1(c2ccc(O)c(C)c2)C(C#N)=C(N)Oc2[nH]nc(C)c21 (stereo not shown) [Compound 2.25.] | < 1 µM |  |
| CCC1(c2ccc(OS(=O)(=O)CC)cc2)C(C#N)=C(N)Oc2[nH]nc(C)c21 (stereo not shown) [Compound 2.26.] | < 10 µM |  |
| CCC1(c2ccc(OCc3ccccc3)cc2)C(C#N)=C(N)Oc2[nH]nc(C)c21 (stereo not shown) [Compound 2.28.] | < 1 µM |  |
| CCC1(c2ccc(C(F)(F)F)c(F)c2)C(C#N)=C(N)Oc2[nH]nc(C)c21 (stereo not shown) [Compound 2.29.] | < 10 µM |  |
| CCC1(c2ccc(C(F)(F)F)cc2)C(C#N)=C(N)Oc2[nH]nc(C)c21 (stereo not shown) [Compound 2.30.] | < 10 µM |  |
| CCC1(c2cccc(C(F)(F)F)c2)C(C#N)=C(N)Oc2[nH]nc(C)c21 (stereo not shown) [Compound 2.31.] | < 1 µM |  |
| CCC1(c2ccc(OC(F)F)cc2)C(C#N)=C(N)Oc2[nH]nc(C)c21 (stereo not shown) [Compound 2.32.] | < 10 µM |  |
| CCC1(c2cc(F)cc(C(F)(F)F)c2)C(C#N)=C(N)Oc2[nH]nc(C)c21 (stereo not shown) [Compound 2.33.] | < 0.1 µM |  |
| CCC1(c2cc(F)c(O)c(F)c2)C(C#N)=C(N)Oc2[nH]nc(C)c21 (stereo not shown) [Compound 2.34.] | < 10 µM |  |
| CCC1(c2cccc(-c3ccccc3)c2)C(C#N)=C(N)Oc2[nH]nc(C)c21 (stereo not shown) [Compound 2.35.] | < 1 µM |  |
| CCCCCCOc1ccc(C2(CC)C(C#N)=C(N)Oc3[nH]nc(C)c32)cc1 (stereo not shown) [Compound 2.36.] | < 10 µM |  |
